Measured values published in patent US8574578B2, “Antibodies against PDGFRα to inhibit tumor growth” (ImClone LLC, priority 2006, dated 2013).

What was measured:
[1] = test system: Akt phosphorylation in PC3-ML cells; test: Akt phosphorylation in PC3-ML cells (Western blot); type: cell-based, human
Method: Bone marrow samples from normal male donors (ages 18-45) were supplied by Cambrex (Poietics™ Donor Program). Samples were centrifuged at 1,500 rpm in order to separate the soluble and cellular phases. The supernatant was filtered using 0.8 μm and 0.22 μm filters in succession. 50 μl of bone marrow aspirate was administered to cells in 1 ml of medium (1:20 final dilution).
For experiments performed in the presence of serum, cells were cultured in DMEM supplemented with 10% FBS and 50 μg/ml gentamycin for 24 hours prior to exposure to bone marrow. For experiments in the absence of serum (starved cells), cells were washed twice with PBS, the growth medium was replaced with serum-free DMEM, and the cells were incubated for 4 hours prior to exposure to bone marrow preparations. When used, AG-1296, a specific inhibitor of PDGF receptors (Rice et al., 1999, Amer. J. Path. 155, 213-21) was added to cultures 30 min. prior to exposure to bone marrowaspirate. IMC-3G3 antibodies were administered as described at pre-treatment times as stated below.

[2] = test system: SKLMS-1 cells; test: PDGF-AA-induced Akt and MAPK phosphorylation in SKLMS-1 cells; type: cell-based, human; conditions: PDGF-AA stimulation of SKLMS-1 cells
Method: (§1) Cells were seeded in six-well Falcon tissue culture plates (250,000 cells per well) and allowed to grow overnight. Wells were then rinsed and incubated in serum-free medium. After an overnight incubation to render cells quiescent, the cells were treated with antibodies for 30 minutes at 37° C. followed by addition of PDGF-AA or PDGF-BB and incubation for an additional 10 minutes at 37° C. Cells were then detached and lysed in 200 μL lysis buffer (50 mmol/L Tris-HCl (pH 8.0), 1% Triton X-100, 150 mmol/L NaCl, 1 mmol/L EDTA, 0.1% SDS, 1 mmol/L sodium orthovanadate, and protease inhibitors (Complete Mini, Roche, Mannheim, Germany)). Cell lysates were analyzed by SDS-PAGE and Western blotting using enhanced chemiluminescence reagents and Hyperfilm (Amersham Biosciences).
(§2) Human tumor cell lines expressing PDGFRα were tested to determine the affects of the human anti-PDGFRα antibody on malignant growth in in vitro and in vivo systems. Two such tumor cell lines that express PDGFRα as determined by flow cytometry are SKLMS-1 (leiomyosarcoma) and U118 (glioblastoma). These cell lines also respond to ligand in mitogenic assays and form tumors in mice. SKLMS-1 has the potential for not only paracrine but also autocrine stimulation.

[3] = test system: U118 cells; test: PDGF-AA-induced downstream-effector phosphorylation in U118 cells; type: cell-based, human
Method: as §1, §2

[4] = test system: U118 cells; test: PDGF-stimulated [3H]thymidine incorporation in U118 cells; type: cell-based, human; conditions: at 66 nmol/L
Method: (§3) The ant-PDGFRα monoclonal antibody was tested for its ability to block PDGFAA-induced mitogenesis of PAE Rα cells. Cells were seeded in 96-well tissue culture plates (1×10^4 cells per well) and grown overnight in 100 μL medium per well. The wells were then rinsed with serum-free medium and cells were serum starved overnight with 75 μL serum-free medium added to each well. IgG was added (25 μL/well) and the plates were incubated for 30 minutes at 37° C. PDGF-AA or PDGF-BB (25 μL/well) was then added and plates were incubated for 18 to 20 hours at 37° C. Plates were incubated for an additional 4 hours after each well received 0.25 μCi [^3H]thymidine (25 μL/well). Antibody, PDGF, and [^3H]thymidine were all diluted in serum-free medium. Cells were then washed with PBS plus 1% bovine serum albumin and detached by treatment with trypsin (100 μL/well). […] After processing the filter, DNA incorporated radioactivity was determined on a scintillation counter (Wallac Microbeta, model 1450).
(§4) Human tumor cell lines expressing PDGFRα were tested to determine the affects of the human anti-PDGFRα antibody on malignant growth in in vitro and in vivo systems. Two such tumor cell lines that express PDGFRα as determined by flow cytometry are SKLMS-1 (leiomyosarcoma) and U118 (glioblastoma). […]

[5] = test system: SKLMS-1 cells; test: PDGF-stimulated [3H]thymidine incorporation in SKLMS-1 cells; type: cell-based, human
Method: as §3, §4

[6] = test system: glioblastoma (U118) xenograft; test: U118 glioblastoma s.c. xenograft growth; type: in vivo, athymic nude mice
Excerpt: (§5) S.c. tumor xenografts were established by injecting 10×10^6 SKLMS-1 or U118 cells mixed in Matrigel (Collaborative Research Biochemicals, Bedford, Mass.) into female athymic nude mice (Crl:NU/NU-nuBR, Charles River Laboratories, Wilmington, Mass.). Tumors were allowed to reach a mean tumor volume (π/6×longest length×perpendicular width^2) of about 400 mm^3. The mice were randomized into five groups (n=12) and treated by i.p. injection twice weekly for the duration of the study. Group 1 mice were treated with vehicle control (0.9% NaCl, USP for Irrigation, B/Braun). Groups 2 to 4 mice were treated with 6, 20, and 60 mg/kg of the instant anti-PDGFRα antibody. Group 5 mice were treated with 60 mg/kg human IgG (Sigma). Groups treated with 6, 20, or 60 mg/kg anti-PDGFRα antibody or human IgG were given 21.4, 71.4, and 214 mg/kg loading doses, respectively. The loading doses were calculated to achieve a steady state plasma concentration from the first dose (elimination half-life, 7 days) using a dosing regimen of twice weekly. Tumor volumes were evaluated twice weekly and tumor growth in the treatment groups was compared with a repeated measures ANOVA.
(§6) Resected tumors were fixed in QDL fixative at 4° C. for 24 hours. After paraffin embedding and sectioning at 4 μm, formalin-fixed sections were stained with Mayer's H&E (Richard Allen, Kalamazoo, Mich.).

[7] = test system: leiomyosarcoma (SKLMS-1) xenograft; test: SKLMS-1 leiomyosarcoma s.c. xenograft growth; type: in vivo, athymic nude mice
Excerpt: as §5, §6

[8] = Elimination half-life used for loading dose calculation; set-up: species or system mice; conditions: mouse, in vivo
Excerpt: as §5

[9] = biological target: T1, PDGFRα (Homo sapiens, UniProt P16234); test: Ligand-induced PDGFRα tyrosine phosphorylation in PAE Rα cells; type: cell-based, porcine aortic endothelial cells stably expressing PDGFRα; set-up: expressed in transfected cells; host or cells: porcine aortic endothelial cells (PAE Rα)
T1 sequence (P16234 24-1089): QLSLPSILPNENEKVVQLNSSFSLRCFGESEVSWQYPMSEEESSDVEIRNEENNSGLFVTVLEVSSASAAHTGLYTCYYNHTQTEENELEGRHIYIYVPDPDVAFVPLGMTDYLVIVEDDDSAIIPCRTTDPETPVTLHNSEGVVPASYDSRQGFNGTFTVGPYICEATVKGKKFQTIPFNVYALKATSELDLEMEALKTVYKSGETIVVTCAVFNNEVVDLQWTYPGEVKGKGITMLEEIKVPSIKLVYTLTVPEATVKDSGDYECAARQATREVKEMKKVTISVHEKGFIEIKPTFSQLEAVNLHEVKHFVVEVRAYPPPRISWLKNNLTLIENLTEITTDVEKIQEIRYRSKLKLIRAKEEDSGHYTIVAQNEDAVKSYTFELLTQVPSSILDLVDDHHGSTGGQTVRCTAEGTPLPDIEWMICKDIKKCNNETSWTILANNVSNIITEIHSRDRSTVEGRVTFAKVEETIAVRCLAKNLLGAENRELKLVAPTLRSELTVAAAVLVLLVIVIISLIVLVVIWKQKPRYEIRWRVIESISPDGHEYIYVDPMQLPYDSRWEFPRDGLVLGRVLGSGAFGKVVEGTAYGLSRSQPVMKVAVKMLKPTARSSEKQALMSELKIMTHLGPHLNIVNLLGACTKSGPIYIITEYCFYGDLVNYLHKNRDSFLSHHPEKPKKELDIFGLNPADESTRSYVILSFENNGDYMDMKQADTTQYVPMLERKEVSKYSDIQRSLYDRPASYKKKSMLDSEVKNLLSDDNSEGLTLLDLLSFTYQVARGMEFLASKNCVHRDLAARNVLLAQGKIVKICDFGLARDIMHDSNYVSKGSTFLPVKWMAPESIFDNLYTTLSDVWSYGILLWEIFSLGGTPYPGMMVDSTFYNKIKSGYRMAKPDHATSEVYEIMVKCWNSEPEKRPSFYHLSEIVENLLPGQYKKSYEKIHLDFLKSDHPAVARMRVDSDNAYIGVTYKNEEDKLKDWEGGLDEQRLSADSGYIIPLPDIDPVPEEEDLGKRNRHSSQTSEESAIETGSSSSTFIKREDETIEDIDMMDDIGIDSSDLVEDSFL
Method: as §1

[10] = biological target: T1, PDGFRα; test: PDGFRα phosphotyrosine level in U118 tumors in vivo; set-up: Two such tumor cell lines that express PDGFRα as determined by flow cytometry are SKLMS-1 (leiomyosarcoma) and U118 (glioblastoma); endogenous in cells; host or cells: U118 human glioblastoma cells grown as s.c. xenograft tumors in athymic nude mice; species or system mice with U118 tumors; conditions: 214 mg/kg loading dose, 60 mg/kg 72 hours later; harvested at 168 hours; relative to human IgG control
Method: The level of receptor phosphotyrosine in U118 tumors was evaluated one week after treatment with anti-PDGFRα antibody or human IgGt. Mice with established U118 tumors (500 mm^3) were treated with a 214 mg/kg loading dose followed 72 hours later by a 60 mg/kg maintenance dose of antibody. Tumors were harvested from mice one week (168 hours) after the first antibody injection (at a time before tumor regression is observed on average; see FIG. 18A) and homogenized in phosphorylation assay lysis buffer (see above). The lysates were centrifuged twice at 14,000 rpm and the protein concentration for the collected supernatant was determined (Bio-Rad protein assay, Bio-Rad, Hercules, Calif.). Lysate (4 mg) from each sample was immunoprecipitation using anti-PDGFRα antibody. Immunoprecipitated human PDGFRα was then immunoblotted with either an anti-PDGFR or anti-phosphotyrosine antibody.

IMC-3G3: human anti-PDGFRα monoclonal antibody; heavy chain variable region SEQ ID NO:8, light chain variable region SEQ ID NO:16
effect on PDGF-BB stimulated Akt phosphorylation ([1]; 20 μg/ml, pre-incubation 30 minutes, 30 ng/ml PDGF-BB): neutralized | inhibition of bone marrow induced Akt phosphorylation ([1]; 30-minute incubation time): about 40% | inhibitory effect on Akt phosphorylation, 120-minute vs 30-minute preincubation ([1]; bone marrow induced): significantly more effective | inhibition of Akt phosphorylation [2]: 100% | inhibition of MAPKs phosphorylation [2]: about 80% | inhibition of phosphorylation in U118 cells [3]: effective inhibitor of phosphorylation | inhibition of PDGF-BB-stimulated mitogenic response [4]: 40% | PDGF-BB-stimulated mitogenic response [5]: inhibited | tumor regression ([6]; 6 mg/kg): 4 of 12 | % T/C at end of study ([6]; 6 mg/kg i.p. twice weekly): 67% | tumor regression ([6]; 20 mg/kg): 5 of 11 | % T/C at end of study ([6]; 20 mg/kg i.p. twice weekly): 63% | tumor regression ([6]; 60 mg/kg): 10 of 12 | % T/C at end of study ([6]; 60 mg/kg i.p. twice weekly): 35% | histologic examination of xenografts ([6]; 60 mg/kg, compared with saline-control group): fewer viable tumor cells | final % TIC ([7]; 6 mg/kg i.p. twice weekly): 66% | final % TIC ([7]; 20 mg/kg i.p. twice weekly): 57% | final % TIC ([7]; 60 mg/kg i.p. twice weekly): 31% | tumor regressions ([7]; 6, 20 and 60 mg/kg): no tumor regressions | histologic examination of xenografts ([7]; day 25, compared with saline-control group): reduction in the amount of viable tumor cells and cellular packing | elimination half-life [8]: 170 h | PDGF-BB-induced receptor phosphorylation [9]: near background levels | IC50 ([9]; read-out: concentration for 50% inhibition of PDGFRα phosphorylation): 0.25 nM | level of PDGFRα phosphotyrosine in U118 tumors [10]: reduction in the level of PDGFRα phosphotyrosine
